Earlier results in US8940662B2, “Methods for controlling pests” (BASF Corporation, priority 2009, dated 2015).

Legend:
termites = conditions: general statement
ants = conditions: general statement

SMILES: N#Cc1nn(-c2c(Cl)cc(C(F)(F)F)cc2Cl)c(N)c1[S+]([O-])C(F)(F)F (racemic) [fipronil, (±)-5-amino-1-(2,6-dichloro-α,α,α-trifluoro-p-tolyl)-4-trifluoromethylsulfinylpyrazole-3-carbonitrile]
- Toxic dose to termites (termites): 2 nanograms per termite
- Toxic dose to ants (ants): about 1 nanogram per ant
